{"source": "paper PMC2574679", "about": "(Journal of the American Chemical Society, 2008)", "target": "Bcl-XL (Homo sapiens, UniProt Q07817)", "sequence (Q07817 whole entry)": "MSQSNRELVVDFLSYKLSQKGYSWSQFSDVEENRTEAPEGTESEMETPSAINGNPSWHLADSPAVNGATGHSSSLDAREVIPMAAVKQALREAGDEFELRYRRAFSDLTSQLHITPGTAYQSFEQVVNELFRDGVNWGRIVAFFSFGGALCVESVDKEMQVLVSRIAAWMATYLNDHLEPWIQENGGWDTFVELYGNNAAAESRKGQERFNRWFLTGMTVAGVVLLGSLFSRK", "assay_type": "binding", "data": [{"smiles": "CC1(C)CCN(c2ccc(C(=O)NS(=O)(=O)c3ccc(NCCSc4ccccc4)c([N+](=O)[O-])c3)cc2)CC1", "note": "[SZ4TA2]", "values": [{"measurement": "IC50", "result": 78.8, "unit": "nM"}]}]}
